Experiments:
VCAM-1 = VCAM-1 assay with ELISA readout (Examples 5-6); format: cell-based; details: for IC50: TNF added with compound, incubated overnight (approximately 16 hours); for VCAM-1 inhibition at [μM] / inhibition at 50 µM: at 50 μM
Protocol: Two to four confluent P150 plates are trypsinized and the cells transferred to a 50 mL conical centrifuge tube. The cells are pelleted, resuspended, and counted using the trypan blue exclusion method.
Cells are resuspended at a concentration of 36,000 cells/mL and 1 mL is aliquoted per well.
Cells are split into 24 well tissue culture plates. The cells in each well should be approximately 90-95% confluent by the following day. Cells should not be older than passage 8.
Compounds are initially screened at 50 μM and 10 μM. A 50 mM stock solution for each compound is prepared in culture medium. The stock solution is diluted to 5 mM and 1 mM. When 10 μL of the 5 mM solution is added to the well (1 mL medium/well), the final concentration will be 50 μM. Adding 10 μL of the 1 mM solution to the well will give a final concentration of 10 μM.
Compounds which will not go into solution in culture medium are resuspended in DMSO at a concentration of 25 mM. The stock solution is then diluted to the final concentration in culture medium. The old medium is aspirated and 1 mL of the new medium with the compound is added. For example, if the final concentration is 50 µM, the 2 μL of the 25 mM stock is added per mL of culture medium. The […] solution is diluted for lower concentrations.
The compounds are added to the plate (each compound is done in duplicate). One plate is done for VCAM expression and one plate is done for ICAM expression.
Immediately after the compounds are added, TNF is added to each well. 100 units/mL TNF is usually added to each well. Since each lot of TNF varies in the number of units, each new lot is titrated to determine the optimum concentration. Therefore this concentration will change. If 100 units/mL is being used, dilute the TNF to 10 units/μL and add 10 μL to each well.
(§1) The plates are incubated at 37° C., 5% CO2 overnight (approximately 16 hours). The next day the plates are checked under the microscope to see if there are any visual signs of toxicity. Records are made of any cell death, debris, or morphology changes, as well as insoluble compounds (particulate or turbity).
In order to assess MCP-1, the media (500 μL) is saved and frozen at −70° C. Wash cells once with roughly 1 ml/well of Hanks Balance Salt Solution (HBSS) or PBS. Gently empty the wash solution and then tap the plate onto paper towels. Add either 250 μL/well of HBSS+5% FCCS to the plank (no primary antibody wells) or 250 μL/well of primary antibody diluted in HBSS+5% FCS. Incubate for 30 minutes at 37° C. Wash the wells twice with 0.5 mL/well HBSS or PBS and gently tap the plates onto paper towels after the last wash. Add 250 μL/well of HRP-conjugated second antibody diluted in HBSS+5% FCS to every well including the blank wells (no primary antibody). Incubate at 37° C. for 30 minutes. Wash the wells four times with 0.5 mL/well HBSS or PBS and gently tap the plates onto paper towels after the last wash. Add 250 μL/well of substrate solution. Incubate at room temperature in the dark until there is adequate color development (blue). Note the length of time incubation was performed (typically 15-30 minutes). Add 75 μL/well stopper solution (8N sulfuric acid), and read at 450 nm.

cells = format: cell-based; design: unit not given beside the values
Protocol: as §1

Molecule	IC50 (VCAM-1)	LD50 (cells)	also measured
CC(C)(C)c1cc(S(=O)(=O)Cc2ccc([N+](=O)[O-])cc2)cc(C(C)(C)C)c1O [2,6-di-tert-butyl-4-(sulfonyl-(4′-nitrobenzyl))phenol]	40 µM	100	
CC(C)(C)c1cc(SCc2ccc([N+](=O)[O-])cc2[N+](=O)[O-])cc(C(C)(C)C)c1O [2,6-di-tert-butyl-4-thio(2′,4′-dinitrobenzyl)phenol]	8 µM	400	
CN(C)CCCSc1cc(C(C)(C)C)c(O)c(C(C)(C)C)c1 [2,6-di-tert-butyl-4-thio(3′-(dimethylamino)propyl))phenol]		100	VCAM-1 inhibition at [μM] (VCAM-1): 30% at 50
CC(C)(C)c1cc(SCc2cccc([N+](=O)[O-])c2)cc(C(C)(C)C)c1O [2,6-di-tert-butyl-4-thio(3′-nitrobenzyl)phenol]	13 µM	200	
CC(C)(C)c1cc(SCc2ccc(C(=O)O)cc2)cc(C(C)(C)C)c1O [2,6-di-tert-butyl-4-thio(4′(methyl)benzoic acid)phenol]	> 50 µM	>100	
CC(C)(C)c1cc(SCc2ccc(CCO)cc2)cc(C(C)(C)C)c1O [2,6-di-tert-butyl-4-thio(4′-(methyl)phenylethyl alcohol))phenol]	15 µM	50	
CC(=O)Oc1ccc(CSc2cc(C(C)(C)C)c(O)c(C(C)(C)C)c2)cc1 [2,6-di-tert-butyl-4-thio(4′-acetoxybenzyl)phenol]	18 µM	75	
CN(C)S(=O)(=O)c1ccc(CSc2cc(C(C)(C)C)c(O)c(C(C)(C)C)c2)cc1 [2,6-di-tert-butyl-4-thio(4′-methyl-N,N-dimethylbenzene-sulfonamide)phenol]	20 µM	350	
CC(C)(C)c1cc(SCc2ccc([N+](=O)[O-])cc2)cc(C(C)(C)C)c1O [2,6-di-tert-butyl-4-thio(4′-nitrobenzyl)phenol]	10 µM	200	
CC(C)(C)c1cc(SCCc2ccc([N+](=O)[O-])cc2)cc(C(C)(C)C)c1O [2,6-di-tert-butyl-4-thio(4′-nitrophenethyl)phenol]	15 µM	0.4	
CCCCC(OC(C)=O)Sc1cc(C(C)(C)C)c(O)c(C(C)(C)C)c1 (centres unmarked) [2,6-di-tert-butyl-4-thio((1′-(acetoxy))pentyl)phenol]		100	
CC(C)(C)c1cc(SCc2ccc(C(=O)O)o2)cc(C(C)(C)C)c1O [2,6-di-tert-butyl-4-thio((2′-furancarboxylic acid)-5-methyl)phenol]	40 µM	400	
CC(C)(C)c1cc(SCCCC(=O)O)cc(C(C)(C)C)c1O [2,6-di-tert-butyl-4-thio(butanoic acid)phenol]	75 µM	200	
CC(C)(C)c1cc(SCc2ccc(CC(=O)O)cc2)cc(C(C)(C)C)c1O [2,6-di-tert-butyl-4-thio-(4′(methyl)phenylacetic acid)) phenol]	80 µM	200	
CC(C)(C)c1cc(SCc2ccc(C(F)(F)F)cc2)cc(C(C)(C)C)c1O [(2,6-di-tert-butyl-4-thio(4′-(trifluoromethyl)benzyl)phenol]	5 µM	300	
CC(C)(Sc1cc(C(C)(C)C)c(O)c(C(C)(C)C)c1)Sc1cc(C(C)(C)C)c(OC(=O)CCCC(=O)O)c(C(C)(C)C)c1 [Pentanedioic acid mono[4-[[1-[[3,5-bis(1,1-dimethylethyl)-4-hydroxyphenyl]thio]-1-methylethyl]thio]-2,6-bis(1,1-dimethylethyl)phenyl] ester]			IC50 (VCAM-1; 16 h): 8.7 µM
CC(C)(Sc1cc(C(C)(C)C)c(O)c(C(C)(C)C)c1)Sc1cc(C(C)(C)C)c(OCc2ccc([N+](=O)[O-])cc2)c(C(C)(C)C)c1 [Phenol, 4-[[1-[3,5-bis(1,1-dimethylethyl)4-[(4-nitrophenyl)methoxy]phenyl]thio]-1-methylethyl]thio]2,6-bis(1,1-dimethylethyl)-]		>100	VCAM-1 inhibition at [μM] (VCAM-1): 30% at 50
CCOCC(O)COc1c(C(C)(C)C)cc(SC(C)(C)Sc2cc(C(C)(C)C)c(O)c(C(C)(C)C)c2)cc1C(C)(C)C (centres unmarked) [Phenol, 4-[[1-[[3,5-bis(1,1-dimethylethyl)-4-(3-ethoxy-2-hydroxypropoxy)phenyl]thio]-1-methylethyl]thio]-2,6-bis(1,1-dimethylethyl)-]			IC50 (VCAM-1; 16 h): 75 µM
CC(C)(Sc1cc(C(C)(C)C)c(O)c(C(C)(C)C)c1)Sc1cc(C(C)(C)C)c(OCCCCO)c(C(C)(C)C)c1 [Phenol, 4-[[1-[[3,5-bis(1,1-dimethylethyl)-4-(4-hydroxybutoxy)phenyl]thio]-1-methylethyl]thio]-2,6-bis(1,1-dimethylethyl)-]			IC50 (VCAM-1; 16 h): 125 µM
CC(C)(Sc1cc(C(C)(C)C)c(O)c(C(C)(C)C)c1)Sc1cc(C(C)(C)C)c(OC=CCO)c(C(C)(C)C)c1 [Phenol, 4-[[1-[[3,5-bis(1,1-dimethylethyl)-4-[[3-hydroxy-1-propenyl)oxy]phenyl]thio]-1-methylethyl]thio]-2,6-bis(1,1-dimethylethyl)-]			IC50 (VCAM-1; 16 h): 55 µM
CC(C)(Sc1cc(C(C)(C)C)c(O)c(C(C)(C)C)c1)Sc1cc(C(C)(C)C)c(OCCCCN)c(C(C)(C)C)c1 [Phenol, 4-[[1-[[4-(4-aminobutoxy)-3,5-bis(1,1-dimethylethyl)phenyl]thio]-1-methylethyl]thio]2,6-bis(1,1-dimethylethyl)-]	9 µM		IC50 (VCAM-1; 16 h): 8 µM
CC(C)(Sc1ccc(OCCCCN)cc1)Sc1cc(C(C)(C)C)c(O)c(C(C)(C)C)c1 [Phenol, 4-[[1-[[4-(4-aminobutoxy)phenyl]thio]-1-methylethyl]thio]-2,6-bis(1,1-dimethylethyl)-]			IC50 (VCAM-1; 16 h): 5 µM
CN(C)c1ccc(CCOc2c(C(C)(C)C)cc(SC(C)(C)Sc3cc(C(C)(C)C)c(O)c(C(C)(C)C)c3)cc2C(C)(C)C)cc1 [Phenol, 4-[[1-[[4-[2-[4-(dimethylamino)phenyl]ethoxy]-3,5-bis(1,1-dimethylethyl)phenyl]thio]-1-methylethyl]thio]-2,6-bis(1,1-dimethylethyl)-]			IC50 (VCAM-1; 16 h): 55 µM
CN(C)CCCOc1c(C(C)(C)C)cc(SC(C)(C)Sc2cc(C(C)(C)C)c(O)c(C(C)(C)C)c2)cc1C(C)(C)C [Phenol, 4-[[1-[[4-[3-(dimethylamino)propoxy]-3,5-bis(1,1-dimethylethyl)phenyl]thio]-1-methylethyl]thio]-2,6-bis(1,1-dimethylethyl)-]			inhibition at 50 µM (VCAM-1): 22%
CC1(C)OC2OC(COc3c(C(C)(C)C)cc(SC(C)(C)Sc4cc(C(C)(C)C)c(O)c(C(C)(C)C)c4)cc3C(C)(C)C)C3OC(C)(C)OC3C2O1 [α-D-Galactopyranose, 6-O-[4-[[1-[[3,5-bis(1,1-dimethylethyl)-4-hydroxyphenyl]thio]-1-methylethyl]thio]-2,6-bis(1,1-dimethylethyl)phenyl]-1,2:3,4-bis-O-(1-methylethylidene)]	45 µM		
CC(C)(Sc1cc(C(C)(C)C)c(O)c(C(C)(C)C)c1)Sc1cc(C(C)(C)C)c(OC[C@H]2O[C@@H](O)[C@H](O)[C@@H](O)[C@@H]2O)c(C(C)(C)C)c1 [β-D-Glucopyranose, 6-O-[4-[[1-[[3,5-bis(1,1-dimethylethyl)-4-hydroxyphenyl]thio]-1-methylethyl]thio]-2,6-bis(1,1-dimethylethyl)phenyl]-]			inhibition at 50 µM (VCAM-1): 30%
Butanedioic acid, (1-methylethylidine)bis[thio[2,6-bi(1,1-dimethylethyl)-4,1-phenylene}}ester	> 50 µM	25	
Butanedioic acid, mono[4-[[1-[[3,5-bis(1,1-dimethylethyl)-4-methoxyphenyl]thio]1-methylethyl]thio]-2,6-bis(1,1-dimethylethyl)phenyl] ester	> 50 µM		
Oxiranemethanol, α-[[[3-[[4-[[1-[[3,5-bis(1,1-dimethylethyl)-4-hydroxyphenyl]thio]-1-methylethyl]thio]-2,6-bis(1,1-dimethylethyl)phenoxy]methyl]oxiranyl]methoxy]methyl]-	60 µM		
Pentanedioic acid, (1-methylethylidene)bis(thio{2,6-bis(1,1-dimethylethyl)-4,1-phenylene)]ester	> 50 µM		

Reference: US20060058268A1, “Compounds and methods for treating diabetic vascular diseases” (priority 2004, published 2006)
